From a melting point compilation (Tetko et al.; mined from patent text by program, amines drawn as free bases though some values may be those of a salt) come the findings set out here.

In general, melting point refers to the temperature of the solid-liquid transition.

Compound `CCc1ncc(CCCOc2c(C)cc(-c3noc(C)n3)cc2C)s1` displayed a melting point of 43 to 45 °C.
Next, `CN1Cc2c(C#CI)ncn2-c2cccc(Cl)c2C1=O`: 215 to 216 °C; `CC(C)(C)c1cc(SC2CC(=O)N(c3ccccc3N3C(=O)CC(Sc4cc(C(C)(C)C)c(O)c(C(C)(C)C)c4)C3=O)C2=O)cc(C(C)(C)C)c1O` (stereo unspecified): 128 to 133 °C.
Next, `FC(F)(F)c1nc2ccnc(Cl)n2n1`: 47 to 48 °C.
For `CC1CCCCC1C(=O)Nc1ccc(-c2cnc(-c3ccc(NC(=O)C4CCCCC4)cc3)[nH]2)cc1` (stereo unspecified), the melting point lay within 221 to 223 °C.
Next, `CC(C)c1ccc(N(Cc2cnn(Cc3ccccc3)c2)C(=O)C2CCCc3c(O)cccc32)cc1` (stereo unspecified): 130 °C.
In the case of `O=C(c1ccccc1)N1CCc2[nH]c3cccc(-c4ccccc4OC4CCCC4)c3c2CC1` it was 187 to 189 °C; in that of `O=c1ccc(S(=O)(=O)c2oc3ccccc3c2O)n[nH]1`, 186 to 189 °C.
In the case of `S=C=Nc1ccccc1-c1ccc(Cl)cc1` it was 63 °C.
In turn, `COc1ccc2oc(=O)c(S(=O)(=O)Nc3ccc(F)c(N)c3)cc2c1` registered a melting point of 255 to 260 °C.
Consider `O=CNNc1ccc(NC(=S)NC2CCCCC2)cc1`, for which the melting point lay within 158 to 160 °C.
In the case of `CCOC(=O)c1c(OCC)cc(C(F)(F)F)nc1C(F)(F)F` it was 57 to 59 °C; in that of `Cc1cc(C=CC#N)cc(Oc2c(C(C)C)c(=O)[nH]c(=O)n2Cc2ccnc(N3C(=O)c4ccccc4C3=O)c2)c1`, 229 to 231 °C.
Next, `O=C(Nc1nc(=O)n(S(=O)(=O)c2ccccc2)cc1F)c1ccccc1`: 150 to 151 °C; `O=c1[nH]c2ccccc2n1CCCN1CCC(O)(c2ccc(Cl)cc2)CC1`: 134 °C.
In turn, `CC1(C2N=NC(=O)O2)CC1` (stereo unspecified) displayed a melting point of 68 to 70 °C.
In turn, `Cc1nc(C)c(I)nc1C` registered a melting point of 59 to 63 °C.
Regarding `Cc1ccc(S(=O)(=O)Nc2cc(C)cc([N+](=O)[O-])c2N)cc1`, the melting point came out at 184 °C.
In the case of `Cc1oc(-c2ccccc2)nc1COc1ccc(OCc2nc(-c3ccccc3)oc2CO)cc1` it was 157 to 158 °C; in that of `CCOC(=O)c1c(CN(C)C2CCCCC2)nc2cc(OC)c(OC)cc2c1-c1ccc(OC)c(OC)c1`, 172 to 174 °C.
Next, `COc1cc(C)c(CCCCCCCCCCCCCCCCCCCCCCO)c(O)c1OC`: 78 to 81 °C; `Cn1c2ccccc2c(=O)c2c([N+](=O)[O-])cccc21`: 308 to 309 °C; `COC(=O)C1=NC2=COc3c(OC)cccc3N2C1C(=O)O` (stereo unspecified): 167 to 168 °C.
Next, `CCOC(=O)c1cnc2c(OC)cccc2c1Nc1ccc(O)cc1C`: 277 to 279 °C; `CCCCCCOc1c2c(c(-c3ccc4c(c3)OCO4)c3c4c(ccc13)OCO4)C(=O)NC2=O`: 222 to 223 °C; `C=C(C(=O)O)c1ccc2c(c1)Cc1ccccc1-2`: 183 to 185 °C.
The compound `COc1ccc([C@@H]2CCCC[C@H]2C#N)c(OC)c1OC` (relative stereo) had a melting point of 69 to 72 °C.
Next, `COc1c(C)c(C)c(OC)c(C(O)CN)c1C` (stereo unspecified): 110 to 112 °C; `CC(C)(C)SC(=O)C=CC1C(C(=O)OC(C#N)c2ccc(F)c(Oc3ccccc3)c2)C1(C)C` (stereo unspecified): 96 °C; `C#CCn1c(Br)c(Br)c(Br)c1C#N`: 95 to 105 °C.
Next, `CN1CCCC(OC(=O)Nc2ccc(Br)cc2)C1` (stereo unspecified): 127 °C; `CN=C(N)N(C)Cc1ccc(C2=NNC(=O)CC2C)cc1` (stereo unspecified): 190 to 192 °C; `CC(=O)c1cc(C)c(NC(=O)c2cc(C(F)(F)F)nn2-c2ncccc2Cl)c(C(=O)NC(C)C)c1`: 135 to 137 °C.
Next, `NC1=Nc2ccc([N+](=O)[O-])cc2C(c2ccccc2F)=NC1`: 225 to 227 °C; `N#CC1=Nc2nc(C3CCCC3)[nH]c2C2=N[C@H](Cc3ccccc3)CN12`: 140 to 142 °C; `Cn1ccnc1Sc1cccc(-c2nc(=O)c3ccccc3s2)n1`: 172 °C.
In turn, `Cc1ccccc1-c1cc2ncccc2c(=O)n1C` yielded a melting point of 104 to 106 °C.
In turn, `Cc1cc(-c2cc(N)ccc2F)cc(C)n1` gave a melting point of 142 to 145 °C.
For the compound `CCOC(=O)c1c(N(C)CCO)c2ccc(C)nc2n(CC)c1=O`, the melting point fell in the range of 111 to 113 °C.
For the compound `CCOC(=O)c1c(C(F)(F)F)nc(C(F)F)c(CO)c1CC`, the melting point was 59.5 to 60.5 °C.
Next, `O=C1c2ccccc2C(=O)N1Cc1noc(-c2ncn3c2[C@@H]2CCN2C(=O)c2cc(F)ccc2-3)n1`: 287 to 288 °C.
In the case of `COc1ccc(Cn2c(=O)[nH]c(=O)c3[nH]c(C(C)C)nc32)cc1OC1CCCC1` it was 282 to 283 °C; in that of `COC(=O)c1ccc2sc(/C=C/c3cccc(N)c3)nc2c1`, 165 to 167 °C; in that of `Cc1cccc2c3c(n(Cc4ccc(Cl)cc4)c12)C(CC(=O)O)CCC3` (single isomer, unassigned; (-)), 196 to 198 °C.
`CC(=O)OCC(=O)C1=CCC2C3CCC4=CC(=O)C=CC4(C)C3(F)C(OC(C)=O)CC12C` (stereo unspecified): the melting point fell in the range of 294 to 296 °C.
In the case of `COc1cc(N(CC(C)C)CC(C)C)ccc1CN1C(=O)C(C)(c2ccccc2Cl)c2cc(Cl)ccc21` (stereo unspecified) it was 153 °C; in that of `O=C(O)c1cc(OCC(F)(F)F)c(Cl)cc1[N+](=O)[O-]`, 153 to 155 °C; in that of `O=C1CCC(N2C(=O)c3cccc(Nc4ccc(C5CCCCC5)cc4)c3C2=O)C(=O)N1` (stereo unspecified), 219 to 221 °C.
`O=C(O)c1cnc2c3ccccc3ccn2c1=O` yielded a melting point of 219 to 231 °C.
Next, `COC(=O)Cc1ccccc1OCc1ccc(N(Cc2nc(-c3ccccc3)oc2C)C(=O)OC(C)(C)C)cc1`: 85 to 86 °C.
`O=S(=O)(c1ccccc1)c1c(-c2ccc(Cl)cc2)[nH]c(C(F)(F)F)c1Cl`: the melting point is 158 to 161 °C.
Next, `Cc1cc(-c2c[nH]cn2)ccc1N=CNC#N`: 200 to 202 °C; `CC(=O)Nc1ccc(CNC(=O)c2ccccc2)cc1`: 175 to 177 °C.
The compound `Cc1cc(-c2nc3cccnn3c2-c2ccnc(NC(=O)NC(C)C)c2)ccc1F` displayed a melting point of 232 to 233 °C.
Next, `CC(CCOS(N)(=O)=O)Oc1ccccc1` (stereo unspecified): 76 to 77 °C; `COc1c(OCCn2c([N+](=O)[O-])cnc2C)cnc(CNc2nc(C)nc(C)c2Cl)c1C`: 182 to 184 °C; `CC(C)(C)C(NC(=O)c1ccc(-c2ccco2)cc1)Nc1c(Nc2cccnc2)c(=O)c1=O` (stereo unspecified): 230 to 232 °C.
In the case of `CC(C)n1nc(-c2ncc(N)nc2-c2ccccc2)ccc1=O` it was 204 to 206 °C.
Next, `CC(C)(C)OC(=O)COc1ccc(NC(=O)NC(=O)c2ccc(C(N)=S)cc2)cc1`: 248 °C; `Nc1nc(N)nc(-c2ccc(-c3ccc([N+](=O)[O-])cc3)cc2)n1`: above 250 °C.
As to `CC(C)N1C(=O)c2cccc3c(S(C)(=O)=O)ccc1c23`, the melting point fell in the range of 164 to 165 °C.
On to `NC(=S)C1CCCc2c1ncc1c2CCCC1` (stereo unspecified), for which the melting point was 162 °C.
In the case of `CCNC(=O)C(=CNc1ccc(I)cc1)C(=O)c1ccccc1Cl` it was 160 to 162 °C.
Turning to `Cc1ccc2c(c1)C1c3cc4c(cc3OCC1NC2=O)OCO4` (stereo unspecified), the melting point is above 250 °C.
In the case of `O=C(O)C(O)(c1ccccc1)c1ccc(Br)cc1` (racemic) it was 125 to 126 °C; in that of `COc1cc(C(=O)NS(=O)(=O)Cc2ccccc2C(F)(F)F)nc(C)n1`, 120 to 122 °C; in that of `N=c1[nH]c2ccc(Cl)cc2c2nc(C3CCCO3)nn12` (stereo unspecified), 203 to 206 °C.
Next, `CCCCN(CC)c1nc(C)nc2c1C(C)(C)C(O)N2c1c(C)cc(C)cc1C` (stereo unspecified): 142 to 145 °C; `O=C1NC(=O)c2c1c(-c1ccccc1Cl)cc1c2c2cc(O)ccc2n1CCSc1ccccc1`: 262 to 264 °C.
Compound `CNC(=NC#N)NCCSCc1nccc(N)n1` came in with a melting point of 189 to 190 °C.
In the case of `CCCc1c(OCCCOc2ccc(C(=O)C(=O)OCC)cc2)ccc(C(=O)OC)c1O` it was 62 to 64 °C.
`CCc1c(-c2ccc3cn[nH]c3c2)cc(Nc2ccc(N3CCN(CC)CC3)cn2)c2nccn12` came in with a melting point of 217 °C.
In the case of `CCn1c(=O)c2c(nc(/C=C/c3ccc(OC)c(OC)c3OC)n2C)n(CC)c1=O` it was 153 to 154 °C; in that of `O=C(c1ccc(-c2ccc3nnn(Cc4ccc5ncccc5c4)c3n2)cc1)N1CCN(CCO)CC1`, 158 to 160 °C; in that of `CC1Nc2ccccc2N(Cc2ccccc2)C(=O)C1C/C=C/c1ccccc1` (stereo unspecified), 119 to 120 °C.
Compound `Cn1c(=O)c([N+](=O)[O-])c(N2CCN(C(=O)c3cccs3)CC2)c2ccccc21` displayed a melting point of 105 °C.
In turn, `Cc1ccnc2c1C(=O)CC(c1cccc(Cl)c1Cl)C2` (stereo unspecified) returned a melting point of 123 to 124 °C.
Compound `CCCCCCCOc1ccc(C(N)=O)cc1` displayed a melting point of 149 to 152 °C.
In the case of `CN1c2ccccc2-c2nc3ccccc3c3cccc1c23` it was 212 to 214 °C; in that of `O=C(Nc1cccc(S(=O)(=O)N2CCCC2)c1)c1cnn2c(C(F)(F)F)cc(-c3ccc(Cl)cc3)nc12`, 252 °C.
In the case of `CC1=CCC(NC(=O)NS(=O)(=O)c2ccc(CCNC(=O)N3CCC(C)CC3=O)cc2)CC1` (stereo unspecified) it was 173 to 175 °C; in that of `O=C1CCC(N2Cc3c(OCc4ccc(CN5CCN(S(=O)(=O)c6ccc(F)c(F)c6)CC5)cc4)cccc3C2=O)C(=O)N1` (stereo unspecified), 225 to 227 °C.
In the case of `CNC(=O)N(O)C(C)c1ccc(C#Cc2ccccc2)cc1` (stereo unspecified) it was 138 to 141 °C.
With `COc1ccccc1-c1c(O)c2ccc(Cl)cc2[nH]c1=O`, the melting point is above 300 °C.
In turn, `C[C@]1(COc2ccc(N3CCN(CC=Cc4ccc(Cl)c(Cl)c4)CC3)cc2)Cn2cc([N+](=O)[O-])nc2O1` gave a melting point of 205 to 206 °C.
Next, `Cc1ccc(S(=O)(=O)N2CCC(c3ccc(O)cc3O)CC2)cc1`: 206 to 207 °C.
